The nature of data set [1]: Rate of dissolution in H2O at 25° C. of rebaudioside A polymorph and amorphous forms. It counts as physicochemical. An excerpt: The purification of rebaudioside A by crystallization as described above results in the formation of at least three different polymorphs: Form 1: a rebaudioside A hydrate; Form 2: an anhydrous rebaudioside A; and Form 3: a rebaudioside A solvate. In addition to the at least three polymorph forms of rebaudioside A, the purification of rebaudioside A may result in the formation of an amorphous form of rebaudioside A, Form 4. The aqueous organic solution and temperature of the purification process influence the resulting polymorph and amorphous forms in the substantially pure rebaudioside A composition. FIGS. 1-5 are exemplary powder x-ray diffraction (XRPD) scans of the polymorph and amorphous forms of rebaudioside A: Form 1 (hydrate), Form 2 (anhydrate), Form 3A (methanol solvate), Form 3B (ethanol solvate), and Form 4 (amorphous), respectively.

Data set [2] is classed as physicochemical. How it is done: A solution of rebaudioside A (>97% pure by HPLC) was prepared in double distilled water (12.5 gm in 50 mL, 25% concentration) by stirring the mixture at 40° C. for 5 minutes. An amorphous form of rebaudioside A was formed by immediately using the clear solution for spray drying with the Lab-Plant spray drier SD-04 instrument (Lab-Plant Ltd., West Yorkshire, U.K.). The solution was fed through the feed pump into the nozzle atomizer which atomized it into a spray of droplets with the help of a constant flow of nitrogen/air. […] This dry powder (11-12 g, H2O 6.74%) was discharged continuously from the drying chamber and was collected in a bottle.

Consider rebaudioside A [Form 1], for which, in data set [1] (graded Very low), the “Rate of dissolution in H2O at 25° C.” value is “Very low (<0.2%/60 %/60 minutes”. As for rebaudioside A [Form 4], the “solubility in water at room temperature” value in data set [2] was more than 35.0%. The “Rate of dissolution in H2O at 25° C.” value in data set [1] (graded Intermediate or High) was “High (>35%/5 %/5 minutes”.

Take rebaudioside A [Form 3]: the “Rate of dissolution in H2O at 25° C.” value in data set [1] (graded Intermediate or High) is on record as “High (>30%/5 %/5 minutes”. Regarding rebaudioside A [Form 2], the “Rate of dissolution in H2O at 25° C.” value in data set [1] (graded Intermediate or High) is “Intermediate (<30%/5 %/5 minutes”.
